Experimental data published in PMC7291858, “An Enhanced Variant Designed From DLP4 Cationic Peptide Against Staphylococcus aureus CVCC 546” (Frontiers in Microbiology, 2020).
In brackets after ≈: the same amount, converted by molar mass. Peptide text beside a SMILES is read from it.

Tests used:
[1] = test system: S. aureus ATCC 43300; assay type: cell-based, Staphylococcus aureus; details: microtiter, serial 2-fold dilutions, 37°C, 16∼20 h, triplicate; – = no activity
Outline: (§1)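 MIC values come from triplicate microtiter plate tests in which serial 2-fold peptide dilutions were incubated with bacteria at 37°C for 16∼20 h; no visible growth defined the endpoint.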

[2] = test system: mouse macrophage RAW 264.7; assay: Cytotoxicity, MTT assay; assay type: cell-based; details: 256 μg/mL, RAW 264.7, MTT, n = 4
Procedure: The cytotoxicity of peptides toward mouse macrophage RAW 264.7 was evaluated by the MTT assay as described previously ([Wang X. et al., 2018]).

[3] = test system: S. epidermidis ATCC 12228; assay: MIC, microtiter plate assay; assay type: cell-based, Staphylococcus epidermidis; details: 37°C, 16∼20 h, triplicate
Procedure: (§2) The minimal inhibitory concentration (MIC) was evaluated by a microtiter plate assay ([Wiegand et al., 2008]). Serial 2-fold dilutions of test peptides were placed into a 96-well plate containing identical bacterial inoculum and incubated at 37°C for 16∼20 h. Vancomycin was used as antibiotic control. The MIC value was defined as the lowest peptide concentration where no visible growth occurred. All tests were made in triplicate.

[4] = test system: S. aureus CVCC 546; assay: Potassium ion (K+) leakage; assay type: cell-based, Staphylococcus aureus; details: 1 × MIC, treated for 150 min, 0.9% saline, 10^8 CFU/mL, ICP, n = 3
Procedure: To further investigate the effects of peptides on membrane integrity, K^+ leakage determination was carried out as previously described ([Miao et al., 2016]). Briefly, S. aureus CVCC 546 cells were centrifuged, washed, and resuspended in 0.9% sterile saline. The cell suspension (10^8 CFU/mL) was treated with peptides at 1 × MIC. Cells untreated and treated with DLP4 or nisin were used as blank and positive controls. At time intervals of 30, 60, 90, 120, and 150 min, the suspensions were centrifuged at 12000 rpm for 5 min. The supernatants were then subjected to measurement by Agilent inductively coupled plasma optical emission (ICP-OES).

[5] = test system: S. aureus CVCC 546; assay: Mouse thigh infection model, CFU in thigh muscle; assay type: in vivo, mouse (female CD-1); details: 10 mg/kg single i.p. dose 2 h post-infection, read 24 h post-infection, n = 6
Procedure: (§3) Mouse experiments were carried out at Gene Engineering Laboratory, Feed Research Institute of Chinese Academy of Agricultural Sciences (CAAS) and complied with institutional animal care and use policies and procedures (AEC-CAAS-20090609). All animal studies were performed with female CD-1 mice, 6∼7 weeks old.
(§4) S. aureus CVCC 546 in the exponential phase were resuspended in MHB and adjusted to 1 × 10^8 CFU/mL, a 0.1-mL inoculum was injected into the right thighs of mice. At 2 h post-infection, mice (n = 6) were administered intraperitoneally (i.p.) with peptides at 2.5, 5, or 10 mg/kg. Mice raised without any treatment, or treated with PBS, 10 mg/kg DLP4, or vancomycin were used as the blank and negative and positive controls, respectively. At 24 h post-infection, peripheral blood was collected and serum was separated for cytokine levels analysis by using enzyme-linked immunosorbent assay (ELISA) kit (R&D systems, United States). Mice were euthanized, the right thighs were aseptically removed and processed for colonies counting ([Ling et al., 2015]).

[6] = test system: S. aureus CVCC 546 gDNA; assay: Gel retardation assay of gDNA binding; set-up: species or system Staphylococcus aureus; details: 10 min incubation, 1% agarose gel, ratios 0-5 (w/w)
Procedure: A gel retardation assay ([Zhao et al., 2019]) was utilized to analyze the binding of peptides to genomic DNA (gDNA) extracted from S. aureus CVCC 546 with TIANamp Bacteria DNA Kit (TIANGEN Biotech Co., Ltd., Beijing). The peptides were incubated for 10 min with gDNA at different ratios of 0–5.0 (w/w) and then loaded on 1% agarose gel for electrophoresis analysis.

[7] = test system: S. enteritidis CVCC 3377; assay: MIC, microtiter plate assay; assay type: cell-based, Salmonella enteritidis; details: 37°C, 16∼20 h, triplicate
Procedure: as §2

[8] = test system: S. aureus CVCC 546; assay: Time-kill assay; assay type: cell-based, Staphylococcus aureus; details: MHB, 10^5 CFU/mL, 37°C, n = 3
From the text: Time-kill assay was used to assess the killing rates of S. aureus cells by AMPs in vitro, done by measuring the number of viable bacteria left at various times after exposure to the peptides. […] At different time intervals, a certain sample was taken, serially diluted, and plated on MHA for colonies counting. Cells treated with 2 × MIC DLP4 or vancomycin and left without treatment were used as the positive and blank controls, respectively ([Flamm et al., 2019]).

[9] = test system: S. aureus CVCC 546; assay: Membrane permeabilization, PI flow cytometry; assay type: cell-based, Staphylococcus aureus; details: 0.5 h, 10^8 CFU/mL, n = 3
Procedure: The effects of peptides on membrane permeabilization were measured by flow cytometry ([Zhu et al., 2018]). […] Cells untreated and treated with 2 × MIC DLP4 or vancomycin were used as blank and positive controls. The fluorescence of the dye was monitored at an excitation wavelength of 488 nm and an emission wavelength of 635 nm.

[10] = test system: Streptococcus pneumoniae CVCC 2350; assay: MIC, microtiter plate assay; assay type: cell-based; details: 37°C, 16∼20 h, triplicate
Procedure: as §2

[11] = test system: Escherichia coli ATCC 25922; assay: MIC, microtiter plate assay; assay type: cell-based; details: 37°C, 16∼20 h, triplicate
Procedure: as §2

[12] = test system: Salmonella pullorum CVCC 533; assay: MIC, microtiter plate assay; assay type: cell-based; details: 37°C, 16∼20 h, triplicate
Procedure: as §2

[13] = test system: S. suis CVCC 3928; assay: MIC, microtiter plate assay; assay type: cell-based, Streptococcus suis; details: 37°C, 16∼20 h, triplicate
Procedure: as §2

[14] = test system: IL-6; assay: Mouse thigh infection model, serum cytokine ELISA; assay type: in vivo, mouse (female CD-1); details: 10 mg/kg i.p., serum 24 h post-infection
Procedure: as §3, §4

[15] = test system: TNF-α; assay: Mouse thigh infection model, serum cytokine ELISA; assay type: in vivo, mouse (female CD-1); details: 10 mg/kg i.p., serum 24 h post-infection
Procedure: as §3, §4

[16] = test system: IL-10; assay: Mouse thigh infection model, serum cytokine ELISA; assay type: in vivo, mouse (female CD-1); details: 10 mg/kg i.p., serum 24 h post-infection
Procedure: as §3, §4

[17] = test system: E. coli K88; assay: MIC, microtiter plate assay; assay type: cell-based, Escherichia coli; details: 37°C, 16∼20 h, triplicate
Procedure: as §2

[18] = test system: Staphylococcus aureus CVCC 546; assay: microbe, parasite or virus in culture; assay type: cell-based
Outline: as §1

## CC[C@H](C)[C@@H]1NC(=O)[C@@H]2CSSC[C@@H](C(=O)N[C@@H](CCCNC(=N)N)C(=O)N[C@@H](CCCCN)C(=O)O)NC(=O)[C@H](CC(N)=O)NC(=O)[C@@H]3CSSC[C@H](NC(=O)[C@H](C)NC(=O)[C@H](C)NC(=O)[C@H](Cc4c[nH]cn4)NC(=O)CNC(=O)[C@H](C(C)C)NC(=O)[C@H](CCCCN)NC(=O)[C@H](Cc4ccccc4)NC(=O)[C@@H]4CCCN4C(=O)[C@H](CO)NC(=O)[C@H](CC(C)C)NC(=O)[C@H](CC(C)C)NC(=O)[C@H](CC(=O)O)NC(=O)[C@@H](NC(=O)[C@@H](NC(=O)[C@H](C)N)[C@@H](C)O)CSSC[C@H](NC(=O)[C@H](Cc4c[nH]c5ccccc45)NC(=O)CNC(=O)CNC(=O)[C@H](CCCNC(=N)N)NC(=O)[C@H](CCCCN)NC(=O)CNC(=O)[C@H](CCCNC(=N)N)NC(=O)[C@H](C)NC1=O)C(=O)N[C@@H](CC(=O)O)C(=O)NCC(=O)N[C@@H](CCCNC(=N)N)C(=O)N[C@@H](C)C(=O)N[C@@H](C(C)C)C(=O)N3)C(=O)N[C@@H](C)C(=O)N[C@@H](C)C(=O)N[C@@H](Cc1c[nH]cn1)C(=O)N2 [ID13] (HELM PEPTIDE1{A.T.C.D.L.L.S.P.F.K.V.G.H.A.A.C.A.A.H.C.I.A.R.G.K.R.G.G.W.C.D.G.R.A.V.C.N.C.R.K}$PEPTIDE1,PEPTIDE1,3:R3-30:R3|PEPTIDE1,PEPTIDE1,16:R3-36:R3|PEPTIDE1,PEPTIDE1,20:R3-38:R3$$$V2.0; N-terminus and C-terminus assumed)
[1]
  A1 (MIC against S. aureus ATCC 43300): 4 µg/mL
[2]
  cell viability: 71.4%
[3]
  MIC: 1.91 µM (≈ 8.02 µg/mL)
[4]
  level of released K+: 0.81 mg/L
[5]
  reduction of S. aureus in infected thigh muscles: 1.8 log10 (CFU/g)
[6]
  peptide/gDNA mass ratio at which gDNA was completely blocked: 5
  peptide/gDNA mass ratio at which migration of gDNA began to be retarded: 1
[7]
  MIC: >30.50 µM
[8]; 1 × MIC
  decrease of CFU counts within 1 h: 2.16 log10 CFU/mL
[8]; 2 × MIC
  decrease of CFU counts within 1 h: 3.14 log10 CFU/mL
[8]; 4 × MIC
  decrease of CFU counts within 1 h: 3.4 log10 CFU/mL
[9]; 1 × MIC
  percentage of PI-positive cells: 47.2%
[9]; 2 × MIC
  percentage of PI-positive cells: 48.2%
[9]; 4 × MIC
  percentage of PI-positive cells: 52.8%
[10]
  MIC: 0.95 µM (≈ 3.99 µg/mL)
[11]
  MIC: >30.50 µM
[12]
  MIC: >30.50 µM
[13]
  MIC: 0.95 µM (≈ 3.99 µg/mL)
[14]
  downregulation of serum level of IL-6: 750.02 pg/mL
[15]
  downregulation of serum level of TNF-α: 1123.30 pg/mL
[16]
  downregulation of serum level of IL-10: 37.66 pg/mL
[17]
  MIC: >30.50 µM
[18]; Table 1, – = no activity
  MIC: 4
[18]; microtiter, 37°C, 16∼20 h, triplicate
  MIC: 0.95 µM (≈ 3.99 µg/mL)
